Assay results reported in patent US9409952B2, “Peptide-compound cyclization method” (Chugai Seiyaku Kabushiki Kaisha, priority 2011, dated 2016).
Like-named read-outs stand apart in the source and are kept apart here. Starred links: 1 amine or outer side, 2 acyl side, 3 side chain; linkers in the order of their positions; H or OH if unused. Positions of bridges follow the written chain, without caps; N, C: chain ends. Non-standard residues stand in square brackets, D forms with d. Residues, ends and D or L forms follow the SMILES beside them. *: point of attachment. NMeF = CN[C@@H](Cc1ccccc1)C(=O)O; NMeI = CC[C@H](C)[C@H](NC)C(=O)O; NMeβAla = CN(CCC(=O)[*:2])[*:1]; NMeL = CN[C@@H](CC(C)C)C(=O)O; NMeV = CN[C@H](C(=O)O)C(C)C; NMeA = CN[C@@H](C)C(=O)O; Piperidide = C1CCN(*)CC1; dNMeA = CN[C@H](C)C(=O)O; Sar = CNCC(=O)O; tBu = CC(C)(C)*

Columns and labels:
[1] = PAMPA (parallel artificial membrane permeability assay); type: in vitro ADME; settings: PAMPA
Summary of the method: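 Artificial membrane was 10% (w/v) egg lecithin plus 0.5% (w/v) cholesterol in dodecane on a PVDF filter. A 10 mM DMSO stock was added at 0.5% (v/v) to donor buffer (50 mM MOPSO, pH 6.5, 5.0% glycocholic acid). After 18 h at 37 °C, LC/MS or LC/UV gave donor and acceptor levels for Pe.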

[2] = Metabolic stability in human hepatic microsome; type: in vitro ADME; settings: microsomes
[3] = membrane permeation rate (Pe), 50 mM MOPSO buffer pH 6.5 with 5.0% glycocholic acid, 37° C., 18 hours, read-out: iPAMPA Pe
[4] = pH 7.4, human hepatic microsome, NADPH(+), read-out: CL NADPH(+)

Compound	Papp at 18 hours, 50 µM [1, 3] [nm/s]	microsomal CLint at 1 uM [2, 4] [µL/min/mg]	Papp at 18 hours, 50 µM ([1]; pH 6.5) [nm/s]	microsomal CLint at 1 uM ([2]; human, pH 7.4, CL NADPH(+)) [µL/min/mg]
CC[C@H](C)[C@H]1C(=O)N[C@@H](C)C(=O)N(C)[C@@H](CC(C)C)C(=O)N[C@@H](COC(C)(C)C)C(=O)N(C)[C@@H](CC(C)C)C(=O)N[C@H](C(=O)N2CCCCC2)CC(=O)N(C)CCC(=O)N[C@@H](Cc2ccccc2)C(=O)N(C)[C@@H](Cc2ccccc2)C(=O)N(C)[C@@H](CC(C)C)C(=O)N[C@@H]([C@@H](C)O)C(=O)N(C)[C@@H](C)C(=O)N1C [DP-92] ([NMeβAla]F[NMeF][NMeL]T[NMeA][NMeI]A[NMeL]S(tBu)[NMeL]D-Piperidide; lactam N-12)	260	29		
CC[C@H](C)[C@H]1C(=O)NCC(=O)N(C)[C@@H](Cc2ccccc2)C(=O)N[C@@H]([C@@H](C)O)C(=O)N(C)[C@@H](C)C(=O)N[C@@H](CC(C)C)C(=O)N[C@H](C(=O)N2CCCCC2)CC(=O)N(C)[C@H](C)C(=O)N(C)[C@@H](C)C(=O)N[C@@H](Cc2ccccc2)C(=O)N(C)[C@@H](CC(C)C)C(=O)N[C@@H](C(C)C)C(=O)N1C [DP-93] ([dNMeA][NMeA]F[NMeL]V[NMeI]G[NMeF]T[NMeA]LD-Piperidide; lactam N-12)			220	17
CC[C@H](C)[C@H]1C(=O)N[C@H](C(=O)N2CCCCC2)CC(=O)N(C)[C@H](C)C(=O)N[C@@H](CC(C)C)C(=O)N(C)[C@@H](Cc2ccccc2)C(=O)N(C)[C@@H](CC(C)C)C(=O)NCC(=O)N(C)[C@@H](C(C)C)C(=O)N(C)[C@@H](Cc2ccccc2)C(=O)N(C)[C@@H](C)C(=O)N[C@@H]([C@@H](C)O)C(=O)N(C)[C@@H](C)C(=O)N1C [DP-94] ([dNMeA]L[NMeF][NMeL]G[NMeV][NMeF][NMeA]T[NMeA][NMeI]D-Piperidide; lactam N-12)			280	17
CC(C)C[C@@H]1NC(=O)[C@H](CC(C)C)N(C)C(=O)[C@H](C)NC(=O)[C@H](C(C)C)N(C)C(=O)[C@H](Cc2ccccc2)NC(=O)CN(C)C(=O)[C@H]([C@@H](C)O)NC(=O)[C@H](C)N(C)C(=O)[C@H](CC(C)C)N(C)C(=O)[C@@H](C)NC(=O)C[C@@H](C(=O)N2CCCCC2)NC1=O [DP-95] ([dA][NMeL][NMeA]T[Sar]F[NMeV]A[NMeL]LD-Piperidide; lactam N-11)	73	19		
CC[C@H](C)[C@H]1C(=O)N(C)[C@@H](CC(C)C)C(=O)N[C@H](C(=O)N2CCCCC2)CC(=O)N[C@H](C)C(=O)N(C)[C@@H](CC(C)C)C(=O)N[C@@H](CC(C)C)C(=O)N(C)[C@@H](Cc2ccccc2)C(=O)N[C@@H](COC(C)(C)C)C(=O)N(C)[C@@H](Cc2ccccc2)C(=O)N[C@@H]([C@@H](C)O)C(=O)N(C)[C@@H](C)C(=O)N1C [DP-96] ([dA][NMeL]L[NMeF]S(tBu)[NMeF]T[NMeA][NMeI][NMeL]D-Piperidide; lactam N-11)			130	51
CC[C@H](C)[C@H]1C(=O)N[C@@H]([C@@H](C)O)C(=O)N(C)CC(=O)N[C@H](C(=O)N2CCCCC2)CC(=O)N[C@H](C)C(=O)N[C@@H](CC(C)C)C(=O)N(C)[C@@H](CC(C)C)C(=O)N(C)[C@@H](Cc2ccccc2)C(=O)N[C@@H](C)C(=O)N(C)[C@@H](Cc2ccccc2)C(=O)N(C)[C@@H](CC(C)C)C(=O)N1C [DP-97] ([dA]L[NMeL][NMeF]A[NMeF][NMeL][NMeI]T[Sar]D-Piperidide; lactam N-11)			270	72
CC[C@H](C)[C@H]1C(=O)N(C)[C@@H](C(C)C)C(=O)N(C)CC(=O)N[C@@H]([C@@H](C)O)C(=O)N[C@H](C(=O)N2CCCCC2)CC(=O)N[C@H](C)C(=O)N(C)[C@@H](C)C(=O)N(C)[C@@H](CC(C)C)C(=O)N[C@@H](CC(C)C)C(=O)N(C)[C@@H](Cc2ccccc2)C(=O)N[C@@H](Cc2ccccc2)C(=O)N1C [DP-98] ([dA][NMeA][NMeL]L[NMeF]F[NMeI][NMeV][Sar]TD-Piperidide; lactam N-11)	260	27		
